Assay results: PMC8453745, “Human Mass Balance and Metabolite Profiling of [^14C]‐Pamiparib, a Poly (ADP‐Ribose) Polymerase Inhibitor, in Patients With Advanced Cancer” (Clinical Pharmacology in Drug Development, 2021)
Several values for one entry are separate records, joined by “and”; a condition that tells them apart may be missing. Equal entries are not always repeated.

Assays:
[1] = metabolite profiling in plasma (radioprofiling, LC‐MS); assay type: in vivo, human
Procedure: (§1) Total radioactivity concentrations of [^14C]‐pamiparib in whole blood, plasma, urine, and feces were determined by liquid scintillation counting (LSC). Radioactivity in each sample was measured for 5 minutes using a Packard Tri‐Carb liquid scintillation counter model 2100TR, 2900TR, or 3100TR (Canberra Packard, Pangbourne, Berks, Australia) with the facilities for computing quench‐corrected disintegrations per minute. Metabolite identification in plasma, urine, and feces was conducted by LC‐MS. Quantitation of the metabolites present in plasma, urine, and feces was based on the profiles of radioactivity. The limit of quantitation for radioactivity in plasma, urine, and feces was set at 1% of each chromatographic analysis (run) and 10 counts per minute (cpm) peak height; therefore, radioactive peaks that were <1% of the total run or <10 cpm peak height were reported as not detected. In addition, pamiparib and standards were reported, regardless of the percentage of run or peak height.
For metabolite profiling in plasma, ≈1.9 to 2.8 g of each plasma sample collected 0.5, 1, 2, 6, 12, and 24 hours postdose was extracted twice with 6 mL of 0.1% formic acid in acetonitrile (ACN). Duplicate aliquots were analyzed by LSC to determine extraction recoveries, which ranged from 77.4% to 98.5%. The combined supernatants were evaporated to dryness under nitrogen and reconstituted in 2:1 reverse osmosis water:methanol (MeOH). Duplicate aliquots were analyzed by LSC to determine reconstitution recoveries, which ranged from 89.3% to 115%. The reconstituted samples were analyzed by LC‐MS, with eluent fractions collected at 10‐second intervals into 96‐well plates containing solid scintillant. Radioactivity in each well was determined using TopCount analysis, and radiochemical profiles were generated based on radioactivity counts.
(§2) Metabolic profiling was performed on plasma, urine, and feces samples using LC‐MS. Shimadzu/Nexera LC‐30AD pumps and Shimadzu/Prominence DGU‐20A5R degasser were used with Shimadzu/Prominence controller CBM‐20A. The high‐pressure liquid chromatograph (HPLC) was equipped with an autoinjector (Shimadzu/Nexera SIL‐30ACMP) set at 10°C and a fraction collector (Leap Technologies PAL HTC‐xt) set at 15°C. Thermo Fisher Scientific Q Exactive was the mass spectrometer system.

[2] = metabolite profiling in pooled urine (radioprofiling, LC‐MS); assay type: in vivo, human; settings: pooled urine
Procedure: as §1
Each aliquot of urine (about 1 mL, weighed) was added directly to liquid scintillant prior to LSC. For metabolite profiling, urine samples collected 0‐4, 4‐8, 8‐12, 12‐24, 24‐48, 48‐72, and 72‐96 hours postdose were pooled by individual patient to generate 0‐ to 96‐hour pooled samples including 0.2% of each sample by weight. The radioactivity in each pooled sample was determined by LSC. The total amount of urine collected was factored into the recovery calculation. […] Pooled urine samples were analyzed by LC‐MS, with eluent fractions collected at 10‐second intervals into 96‐well plates containing solid scintillant. Radioactivity in each well was determined using TopCount analysis, and radiochemical profiles were generated based on radioactivity counts.
as §2

[3] = safety and tolerability in patients; assay type: in vivo, human
Procedure: Safety and tolerability were evaluated throughout the study, and AEs were assessed from the time of obtaining informed consent to discharge from the study and follow‐up visit or early withdrawal. Scheduled safety assessments of 12‐lead electrocardiogram, physical examination, vital signs, and clinical laboratory investigations (clinical chemistry, hematology, serology, and urinalysis) occurred before administration of the study drug and at discharge and follow‐up visit.

[4] = tested on: BRCA1 mutant mouse xenograft; settings: BRCA1 mutant mouse xenograft model; cited from earlier work

## C[C@]12CCCN1CC1=NNC(=O)c3cc(F)cc4[nH]c2c1c34 [Pamiparib]
[1]; based on high‐performance liquid chromatography‐liquid scintillation counting
  AUC0‐t, geometric mean: 19670 ngEq·h/mL
[1]; based on high‐performance liquid chromatography‐liquid solid chromatography
  Cmax, geometric mean: 1737 ngEq/mL
[1]; plasma, mean of patients
  mean percent of total radioactivity exposure in plasma (AUC0‐24h): 67.2% ± 10.2% and 67.2% and 67%
[1]; plasma, patient S101
  Percent of Total Radioactivity Concentration (AUC0‐24h): 78.0%
[1]; plasma, patient S102
  Percent of Total Radioactivity Concentration (AUC0‐24h): 72.6%
[1]; plasma, patient S103
  Percent of Total Radioactivity Concentration (AUC0‐24h): 63.2%
[1]; plasma, patient S104
  Percent of Total Radioactivity Concentration (AUC0‐24h): 55.0%
[2]
  dose quantified in urine: 52.5 % of the dose
[3]; 4 patients
  patients with TEAEs: 100%
  severity of all TEAEs: mild (CTCAE grade 1)
[3]; in 2 patients
  TEAEs considered related to [^14C]‐pamiparib, percent of events: 31.3%
[3]; in 4 patients
  TEAEs considered unrelated to [^14C]‐pamiparib, percent of events: 68.8%
  TEAEs reported (events): 16
[3]; single dose 60 mg [^14C]‐pamiparib, 4 patients
  tolerability: well tolerated
[3]; single dose 60 mg, 4 patients
  deaths or serious AEs: no deaths or serious AEs
[4]
  antitumor activity: strong antitumor activity
  potency compared with olaparib: more potent than olaparib
